The IC50 is the midpoint of a concentration-inhibition curve. Read a low IC50 as greater potency.

Consider 14 molecules from US20080176838A1, “Dpp-IV Inhibitors” (SANTHERA PHARMACEUTICALS (DEUTSCHLAND) AG, priority 2004, published 2008).

The target of the assay is T1, DPP-IV (Homo sapiens, UniProt P27487).
T1 construct: Soluble human DPP-IV lacking the transmembrane anchor (Gly31-Pro766); Pre-Pro-alpha-mating factor leader (secretion fusion) (N, cleaved yes); made in house
The assay can be described thus: Continuous fluorimetric assay of inhibition of DPP-IV peptidase activity (cleavage of Gly-Pro-AMC). As to conditions: substrate Gly-Pro-AMC 16 μM, pH 7.4, 25° C., 1% DMSO. It is filed as biochemical. As for the experimental part: Inhibition of DPP-IV peptidase activity was monitored with a continuous fluorimetric assay. This assay is based on the cleavage of the substrate Gly-Pro-AMC (Bachem) by DPP-IV, releasing free AMC. The assay is carried out in 96-well microtiterplates. In a total volume of 100 μL, compounds are preincubated with […] DPP-IV employing a buffer containing 10 mM Hepes, 150 mM NaCl, 0.005% Tween 20 (pH 7.4). […] The final concentration of DMSO is 1%. The inhibitory potential of the compounds were determined.
Soluble human DPP-IV lacking the transmembrane anchor (Gly31-Pro766) was expressed in a recombinant YEAST-strain as Pre-Pro-alpha-mating fusion.

T1 sequence (P27487 31-766): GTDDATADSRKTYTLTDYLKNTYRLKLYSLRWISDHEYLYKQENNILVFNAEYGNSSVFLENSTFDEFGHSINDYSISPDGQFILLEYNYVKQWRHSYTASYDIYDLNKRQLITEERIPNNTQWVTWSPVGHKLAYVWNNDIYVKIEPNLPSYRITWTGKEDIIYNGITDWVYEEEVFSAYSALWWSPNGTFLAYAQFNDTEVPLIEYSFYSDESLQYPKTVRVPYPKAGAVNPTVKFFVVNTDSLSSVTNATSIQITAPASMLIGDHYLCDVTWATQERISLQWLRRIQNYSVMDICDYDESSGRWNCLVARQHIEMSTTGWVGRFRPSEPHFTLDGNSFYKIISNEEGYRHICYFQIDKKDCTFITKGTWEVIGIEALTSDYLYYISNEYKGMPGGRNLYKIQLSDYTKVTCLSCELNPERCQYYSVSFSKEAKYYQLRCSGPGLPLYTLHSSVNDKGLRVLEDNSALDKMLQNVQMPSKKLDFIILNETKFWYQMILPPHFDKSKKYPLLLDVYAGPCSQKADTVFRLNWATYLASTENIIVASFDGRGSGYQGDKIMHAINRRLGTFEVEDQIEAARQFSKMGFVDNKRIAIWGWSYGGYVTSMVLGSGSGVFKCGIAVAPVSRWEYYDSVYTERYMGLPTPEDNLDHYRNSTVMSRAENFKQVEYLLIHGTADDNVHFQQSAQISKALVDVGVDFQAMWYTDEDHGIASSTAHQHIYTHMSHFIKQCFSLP

`N[C@@H](CCN1CCC[C@H]1CNS(=O)(=O)C1CC1)Cc1ccccc1F` [Example 29] displayed an IC50 of less than 100 nM.

Molecule `N#Cc1cccc(S(=O)(=O)NC[C@@H]2CCCN2CC[C@H](N)Cc2ccccc2F)c1` [Example 31] registered an IC50 of less than 100 nM. With `N[C@@H](CCN1CCC[C@H]1COc1cccc(F)c1)Cc1ccccc1F` [Example 46] the figure was less than 100 nM; with `COC[C@@H]1CCCN1CC[C@H](N)Cc1ccccc1F` [Example 48], 101 to 1000 nM. Under `N[C@@H](CCN1Cc2ccccc2C[C@H]1CNC(=O)C1CC1)Cc1ccccc1F` [Example 28] stands 101 to 1000 nM; under `N[C@@H](CCN1CCC[C@H]1COCc1ccccc1)Cc1ccccc1F` [Example 44, (1R)-3-[(2S)-2-Benzyloxymethyl-pyrrolidin-1-yl]-1-(2-fluoro-benzyl)-propylamine], 101 to 1000 nM. Under `N[C@@H](CCN1CCOCC1CNS(=O)(=O)C1CC1)Cc1ccccc1F` (some centres unmarked) [Example 35] stands 101 to 1000 nM; under `N[C@@H](CCN1CCC[C@H]1CNS(=O)(=O)c1ccccc1)Cc1ccccc1F` [Example 25], less than 100 nM. Turning to `CS(=O)(=O)NC[C@@H]1CCCN1CC[C@H](N)Cc1ccccc1F` [Example 30], the IC50 was less than 100 nM. With `N[C@@H](CCN1Cc2ccccc2C[C@H]1COc1cccc(F)c1)Cc1ccccc1F` [Example 47] the figure was 101 to 1000 nM; with `N[C@@H](CCN1CCC[C@H]1COc1cccc(F)c1)Cc1cccc(Cl)c1` [Example 45, (1R)-(3-Chloro-benzyl)-3-[(2S)-(3-fluoro-phenoxymethyl)-pyrrolidin-1-yl]-propylamine], less than 100 nM.

As to `N[C@@H](CCN1CCC[C@H]1CNS(=O)(=O)CC(F)(F)F)Cc1ccccc1F` [Example 33], the half-maximal inhibitory concentration (IC50) was less than 100 nM. For the molecule `N[C@@H](CCN1Cc2ccccc2C[C@H]1C(=O)NC1CC1)Cc1ccccc1F` [Example 26], the IC50 lay within 101 to 1000 nM. Under `N[C@@H](CCN1CCC[C@H]1CNC(=O)C1CC1)Cc1ccccc1F` [Example 27, Cyclopropanecarboxylic acid {1-[(3R)-amino-4-(2-fluoro-phenyl)-butyl]-pyrrolidin-(2S)-ylmethyl}-amide] stands less than 100 nM.
